Results from patent US20260116944A1, “NOVEL TRIPLE GLP-1/GIP/GLUCAGON RECEPTOR AGONIST AND A PHARMACEUTICAL COMPOSITION FOR PREVENTING OR TREATING OBESITY COMPRISING THE SAME” (HANMI PHARM. CO., LTD., priority 2022, published 2026).
*1 amine or outer side, *2 acyl side, *3 side chain or, on linkers, in order; H or OH if unused. Bridges are numbered along the chain shown (N, C = ends). Where no end group is shown, it is not given here. Side-chain parts run from the residue outwards. [ ]: non-standard residue; d: D form. The star is where a group is joined. C20 diacid = O=C(O)CCCCCCCCCCCCCCCCCCC(=O)*; γGlu = O=C(O)[C@H](CCC(=O)[*:2])N[*:1]; AEEA = NCCOCCOCC(=O)O; Aib = CC(C)(N)C(=O)O

assay: Weight loss effect in AMLN diet-induced obese mice; assay type: in vivo; conditions: 351 ug/kg, Q2D, subcutaneously, 2 weeks, vs. excipient control, p<0.001 one-way ANOVA, FIG. 1
Description: In order to confirm the weight loss effect of each of the three triple agonists of SEQ ID NO: 1, SEQ ID NO: 2, and SEQ ID NO: 4 prepared in the Example above, an AMLN (amylin) mouse model, known as an obesity model, was used. AMLN diet-induced mice were divided into an excipient control group and groups administered with three types of triple agonists (351 ug/kg, Q2D, subcutaneously), and the administration was repeated for 2 weeks.
After repeated administration for 2 weeks, the body weight was measured, and the change in body weight relative to the body weight immediately before administration (DO) was measured to evaluate weight loss effect.

Substance	weight loss efficacy (change in body weight relative to immediately before administration)
Y-Aib-QGTFTSDYSK(1)YLDEKAAKEFVQWLLDHHPSSGQPPPS (Y[Aib]QGTFTSDYSK([AEEA-AEEA-γGlu-C20 diacid])YLDEKAAKEFVQWLLDHHPSSGQPPPS-NH2; lactam 16-20; N-terminus assumed; SMILES CC(C)C[C@H](NC(=O)[C@H](Cc1ccc(O)cc1)NC(=O)[C@H](CCCCNC(=O)COCCOCCNC(=O)COCCOCCNC(=O)CC[C@H](NC(=O)CCCCCCCCCCCCCCCCCCC(=O)O)C(=O)O)NC(=O)[C@H](CO)NC(=O)[C@H](Cc1ccc(O)cc1)NC(=O)[C@H](CC(=O)O)NC(=O)[C@H](CO)NC(=O)[C@@H](NC(=O)[C@H](Cc1ccccc1)NC(=O)[C@@H](NC(=O)CNC(=O)[C@H](CCC(N)=O)NC(=O)C(C)(C)NC(=O)[C@@H](N)Cc1ccc(O)cc1)[C@@H](C)O)[C@@H](C)O)C(=O)N[C@@H](CC(=O)O)C(=O)N[C@H]1CCC(=O)NCCCC[C@@H](C(=O)N[C@@H](CCC(=O)O)C(=O)N[C@@H](Cc2ccccc2)C(=O)N[C@H](C(=O)N[C@@H](CCC(N)=O)C(=O)N[C@@H](Cc2c[nH]c3ccccc23)C(=O)N[C@@H](CC(C)C)C(=O)N[C@@H](CC(C)C)C(=O)N[C@@H](CC(=O)O)C(=O)N[C@@H](Cc2c[nH]cn2)C(=O)N[C@@H](Cc2c[nH]cn2)C(=O)N2CCC[C@H]2C(=O)N[C@@H](CO)C(=O)N[C@@H](CO)C(=O)NCC(=O)N[C@@H](CCC(N)=O)C(=O)N2CCC[C@H]2C(=O)N2CCC[C@H]2C(=O)N2CCC[C@H]2C(=O)N[C@@H](CO)C(N)=O)C(C)C)NC(=O)[C@H](C)NC(=O)[C@H](C)NC(=O)[C@H](CCCCN)NC1=O) [SEQ ID NO: 1, acylated triple agonist peptide, K(1) at position 12, lactam bridge E16-K20, C-terminus amidated]	significant weight loss efficacy
Y-Aib-QGTFTSDYSK(1)YLDEKRAKDFVQWLLDHHPSSGQPPPS (Y[Aib]QGTFTSDYSK([AEEA-AEEA-γGlu-C20 diacid])YLDEKRAKDFVQWLLDHHPSSGQPPPS-NH2; lactam 16-20; N-terminus assumed; SMILES CC(C)C[C@H](NC(=O)[C@H](Cc1ccc(O)cc1)NC(=O)[C@H](CCCCNC(=O)COCCOCCNC(=O)COCCOCCNC(=O)CC[C@H](NC(=O)CCCCCCCCCCCCCCCCCCC(=O)O)C(=O)O)NC(=O)[C@H](CO)NC(=O)[C@H](Cc1ccc(O)cc1)NC(=O)[C@H](CC(=O)O)NC(=O)[C@H](CO)NC(=O)[C@@H](NC(=O)[C@H](Cc1ccccc1)NC(=O)[C@@H](NC(=O)CNC(=O)[C@H](CCC(N)=O)NC(=O)C(C)(C)NC(=O)[C@@H](N)Cc1ccc(O)cc1)[C@@H](C)O)[C@@H](C)O)C(=O)N[C@@H](CC(=O)O)C(=O)N[C@H]1CCC(=O)NCCCC[C@@H](C(=O)N[C@@H](CC(=O)O)C(=O)N[C@@H](Cc2ccccc2)C(=O)N[C@H](C(=O)N[C@@H](CCC(N)=O)C(=O)N[C@@H](Cc2c[nH]c3ccccc23)C(=O)N[C@@H](CC(C)C)C(=O)N[C@@H](CC(C)C)C(=O)N[C@@H](CC(=O)O)C(=O)N[C@@H](Cc2c[nH]cn2)C(=O)N[C@@H](Cc2c[nH]cn2)C(=O)N2CCC[C@H]2C(=O)N[C@@H](CO)C(=O)N[C@@H](CO)C(=O)NCC(=O)N[C@@H](CCC(N)=O)C(=O)N2CCC[C@H]2C(=O)N2CCC[C@H]2C(=O)N2CCC[C@H]2C(=O)N[C@@H](CO)C(N)=O)C(C)C)NC(=O)[C@H](C)NC(=O)[C@H](CCCNC(=N)N)NC(=O)[C@H](CCCCN)NC1=O) [SEQ ID NO: 4, acylated triple agonist peptide, K(1) at position 12, lactam bridge E16-K20]	significant weight loss efficacy
Y-Aib-QGTFTSDYSK(1)YLDEKRAKEFVQWLLDHHPSSGQPPPS (Y[Aib]QGTFTSDYSK([AEEA-AEEA-γGlu-C20 diacid])YLDEKRAKEFVQWLLDHHPSSGQPPPS-NH2; lactam 16-20; N-terminus assumed; SMILES CC(C)C[C@H](NC(=O)[C@H](Cc1ccc(O)cc1)NC(=O)[C@H](CCCCNC(=O)COCCOCCNC(=O)COCCOCCNC(=O)CC[C@H](NC(=O)CCCCCCCCCCCCCCCCCCC(=O)O)C(=O)O)NC(=O)[C@H](CO)NC(=O)[C@H](Cc1ccc(O)cc1)NC(=O)[C@H](CC(=O)O)NC(=O)[C@H](CO)NC(=O)[C@@H](NC(=O)[C@H](Cc1ccccc1)NC(=O)[C@@H](NC(=O)CNC(=O)[C@H](CCC(N)=O)NC(=O)C(C)(C)NC(=O)[C@@H](N)Cc1ccc(O)cc1)[C@@H](C)O)[C@@H](C)O)C(=O)N[C@@H](CC(=O)O)C(=O)N[C@H]1CCC(=O)NCCCC[C@@H](C(=O)N[C@@H](CCC(=O)O)C(=O)N[C@@H](Cc2ccccc2)C(=O)N[C@H](C(=O)N[C@@H](CCC(N)=O)C(=O)N[C@@H](Cc2c[nH]c3ccccc23)C(=O)N[C@@H](CC(C)C)C(=O)N[C@@H](CC(C)C)C(=O)N[C@@H](CC(=O)O)C(=O)N[C@@H](Cc2c[nH]cn2)C(=O)N[C@@H](Cc2c[nH]cn2)C(=O)N2CCC[C@H]2C(=O)N[C@@H](CO)C(=O)N[C@@H](CO)C(=O)NCC(=O)N[C@@H](CCC(N)=O)C(=O)N2CCC[C@H]2C(=O)N2CCC[C@H]2C(=O)N2CCC[C@H]2C(=O)N[C@@H](CO)C(N)=O)C(C)C)NC(=O)[C@H](C)NC(=O)[C@H](CCCNC(=N)N)NC(=O)[C@H](CCCCN)NC1=O) [SEQ ID NO: 2, acylated triple agonist peptide, K(1) at position 12, lactam bridge E16-K20]	significant weight loss efficacy
